Where a name gives a salt, the structure may show the parent alone.

Assay type in all cases: biochemical
One experiment addresses T1, DPP-IV (Homo sapiens, UniProt P27487).
T1 construct: DPP-IV activity from human colonic carcinoma cell extracts; endogenous in cells; host or cells: Caco-2 (ATCC HTB 37), differentiated to induce DPP-IV expression; nonidet-P40 extract
Put plainly: Caco-2 DPP-IV Assay (inhibition of DPP-IV activity from human colonic carcinoma cell extracts). The conditions noted are these: Caco-2 cell extract; substrate H-Alanine-Proline-pNA; pH 7.4; room temperature, 10 minutes. An excerpt: As indicated above, all of the compounds of formula I, and their corresponding pharmaceutically acceptable acid addition salts, are useful in inhibiting DPP-IV. […] The human colonic carcinoma cell line Caco-2 was obtained from the American Type Culture Collection (ATCC HTB 37). Differentiation of the cells to induce DPP-IV expression was accomplished as described by Reisher, et al. in an article entitled "Increased expression of . . . intestinal cell line Caco-2" in Proc. Natl. Acad. Sci., Vol. 90, pgs. 5757-5761 (1993). Cell extract is prepared from cells solubilized in 10 mM Tris-HCl, 0.15 M NaCl, 0.04 t.i.u. aprotinin, 0.5% nonidet-P40, pH 8.0, which is centrifuged at 35,000 g for 30 min. at 4° C. to remove cell debris. The assay is conducted by adding […] solubilized Caco-2 protein, diluted to a final volume of 125 mL in assay buffer (25 mM Tris-HCl pH 7.4, 140 mM NaCl, 10 mM KCl, 1% bovine serum albumin) to microtiter plate wells. The reaction is initiated by adding 25 mL of 1 mM substrate (H-Alanine-Proline-pNA; pNA is p-nitroaniline). The reaction is run at room temperature for 10 minutes after which time a 19 mL volume of 25% glacial acetic acid is added to stop the reaction. Test compounds are typically added as 30 mL additions and the assay buffer volume is reduced to 95 mL. A standard curve of free p-nitroaniline is generated using […] solutions of free pNA in assay buffer. The curve generated is linear and is used for interpolation of substrate consumption (catalytic activity in nmoles substrate cleaved/min). The endpoint is determined by measuring absorbance at 405 nm in a Molecular Devices UV Max microtiter plate reader. The potency of the test compounds as DPP-IV inhibitors, expressed as IC50, is calculated from 8-point, dose-response curves using a 4-parameter logistic function.

Another experiment concerns the target T2, human plasma DPP-IV (Homo sapiens, UniProt P27487).
T2 construct: DPP-IV activity in human and rat plasma; from tissue; host or cells: human plasma
Kind of experiment: Inhibition of DPP-IV activity in human plasma. The conditions noted are these: substrate H-Glycine-Proline-AMC, pH 7.8, room temperature, 20 min. Here is the method: (§1) 192-197 (1992). Briefly, five […] are added to 96-well flat-bottom mictotiter plates (Falcon), followed by the addition of 5 mL of 80 mM MgCl2 in incubation buffer (25 mM HEPES, 140 mM NaCl, 1% RIA-grade BSA, pH 7.8). After a 5 min. incubation at room temperature, the reaction is initiated by the addition of 10 mL of incubation buffer containing 0.1 mM substrate (H-Glycine-Proline-AMC; AMC is 7-amino-4-methylcoumarin). The plates are covered with aluminum foil (or kept in the dark,) and incubated at room temperature for 20 min. After the 20 min. reaction, fluorescence is measured using a CytoFluor 2350 fluorimeter (Excitation 380 nm Emission 460 nm; sensitivity setting 4). Test compounds are typically added as 2 mL additions and the assay buffer volume is reduced to 13 mL. A fluorescence-concentration curve of free AMC is generated using […] solutions of AMC in assay buffer. The curve generated is linear and is used for interpolation of substrate consumption (catalytic activity in nmoles substrate cleaved/min). As with the previous assay, the potency of the test compounds as DPP-IV inhibitors, expressed as IC50, is calculated from 8-point, dose-response curves using a 4 parameter logistic function.

The target of a further experiment is T3, rat plasma DPP-IV (Rattus norvegicus, UniProt P14740).
T3 construct: DPP-IV activity in human and rat plasma; from tissue; host or cells: rat plasma
T3 sequence (P14740 37-767 limits assumed): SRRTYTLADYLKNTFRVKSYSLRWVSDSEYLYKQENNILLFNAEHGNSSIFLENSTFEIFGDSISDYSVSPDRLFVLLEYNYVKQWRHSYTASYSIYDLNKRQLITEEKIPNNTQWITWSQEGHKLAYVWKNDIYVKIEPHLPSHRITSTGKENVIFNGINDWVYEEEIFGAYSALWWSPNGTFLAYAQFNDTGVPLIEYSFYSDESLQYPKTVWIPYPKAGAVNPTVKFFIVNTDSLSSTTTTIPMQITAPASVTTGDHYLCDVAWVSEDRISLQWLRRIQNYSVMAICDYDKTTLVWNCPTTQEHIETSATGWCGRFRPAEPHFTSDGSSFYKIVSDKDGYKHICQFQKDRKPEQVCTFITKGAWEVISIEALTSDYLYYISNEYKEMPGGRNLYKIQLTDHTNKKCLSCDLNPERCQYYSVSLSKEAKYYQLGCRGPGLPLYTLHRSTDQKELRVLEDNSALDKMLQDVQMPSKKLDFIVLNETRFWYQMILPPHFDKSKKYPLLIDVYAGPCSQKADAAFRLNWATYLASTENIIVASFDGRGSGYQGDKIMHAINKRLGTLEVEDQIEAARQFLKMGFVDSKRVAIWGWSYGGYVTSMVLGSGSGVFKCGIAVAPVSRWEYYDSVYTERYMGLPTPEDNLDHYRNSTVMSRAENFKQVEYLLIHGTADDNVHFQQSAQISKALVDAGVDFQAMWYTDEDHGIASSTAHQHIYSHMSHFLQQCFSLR
Put plainly: Inhibition of DPP-IV activity in rat plasma. The following applies: substrate H-Glycine-Proline-AMC, pH 7.8, room temperature, 20 min. The protocol: as §1

T1 sequence (P27487 whole entry): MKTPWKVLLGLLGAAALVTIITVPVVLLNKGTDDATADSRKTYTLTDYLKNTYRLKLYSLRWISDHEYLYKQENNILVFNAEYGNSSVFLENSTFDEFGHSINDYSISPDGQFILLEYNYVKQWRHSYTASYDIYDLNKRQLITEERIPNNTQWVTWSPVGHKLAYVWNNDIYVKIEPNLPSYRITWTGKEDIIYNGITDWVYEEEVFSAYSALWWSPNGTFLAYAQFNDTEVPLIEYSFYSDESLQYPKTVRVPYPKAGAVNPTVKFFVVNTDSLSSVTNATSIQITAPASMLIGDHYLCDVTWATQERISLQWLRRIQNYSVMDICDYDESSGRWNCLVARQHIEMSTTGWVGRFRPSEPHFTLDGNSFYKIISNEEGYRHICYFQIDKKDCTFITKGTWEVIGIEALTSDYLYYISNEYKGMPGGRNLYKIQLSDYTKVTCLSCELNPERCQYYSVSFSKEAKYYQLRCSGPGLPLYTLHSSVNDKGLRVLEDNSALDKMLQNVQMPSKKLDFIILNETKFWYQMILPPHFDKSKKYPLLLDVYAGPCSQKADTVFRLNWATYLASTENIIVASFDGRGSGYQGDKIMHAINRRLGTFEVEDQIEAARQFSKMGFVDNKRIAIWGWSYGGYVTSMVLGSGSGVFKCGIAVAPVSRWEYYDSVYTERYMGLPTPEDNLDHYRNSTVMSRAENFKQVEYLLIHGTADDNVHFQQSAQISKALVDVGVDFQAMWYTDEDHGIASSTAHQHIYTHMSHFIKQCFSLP
T2 sequence (P27487 39-766 limits assumed): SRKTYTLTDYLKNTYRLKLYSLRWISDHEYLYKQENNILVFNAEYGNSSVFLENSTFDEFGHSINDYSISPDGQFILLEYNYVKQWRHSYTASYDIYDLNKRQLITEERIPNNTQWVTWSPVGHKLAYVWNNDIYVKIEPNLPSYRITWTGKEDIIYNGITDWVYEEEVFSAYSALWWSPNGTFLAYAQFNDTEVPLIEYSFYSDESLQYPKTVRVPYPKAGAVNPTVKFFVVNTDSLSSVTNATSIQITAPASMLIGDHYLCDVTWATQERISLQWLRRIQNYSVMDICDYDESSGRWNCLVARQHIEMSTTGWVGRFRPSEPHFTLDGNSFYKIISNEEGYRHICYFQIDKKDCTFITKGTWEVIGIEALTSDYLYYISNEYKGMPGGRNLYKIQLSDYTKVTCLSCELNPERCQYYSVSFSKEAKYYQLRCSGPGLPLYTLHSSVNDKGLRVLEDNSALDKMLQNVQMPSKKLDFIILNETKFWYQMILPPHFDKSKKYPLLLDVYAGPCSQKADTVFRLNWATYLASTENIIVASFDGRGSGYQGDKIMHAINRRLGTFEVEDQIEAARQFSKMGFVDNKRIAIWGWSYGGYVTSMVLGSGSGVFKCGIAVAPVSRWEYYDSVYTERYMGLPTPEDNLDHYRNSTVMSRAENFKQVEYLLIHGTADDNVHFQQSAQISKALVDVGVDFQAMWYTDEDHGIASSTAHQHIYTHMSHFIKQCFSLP

Take `COc1cc2c(cc1OC)CC(C(=O)N1CCC[C@H]1C#N)NC2` (single isomer, unassigned; diastereomer b) [Ex. 7, 1-[1,2,3,4-tetrahydro-6,7-dimethoxy-3-isoquinolinyl]carbonyl-2-Pyrrolidinecarbonitrile [Diastereomer B]]: the IC50 – broadly, the concentration needed to halve the response being measured – was determined as 13 nM at DPP-IV, 12 nM against human plasma DPP-IV and 78 nM against rat plasma DPP-IV.
The like results for `N#C[C@@H]1CCCN1C(=O)[C@@H]1Cc2ccccc2CN1` [Ex. 1, [S-(R*,R*)]-1-(1,2,3,4-tetrahydro-3-isoquinolinyl)carbonyl-2-pyrrolidinecarbonitrile trifluoroacetate] were, in that order, 7.6 nM, 41 nM and 790 nM.
In turn, `N#C[C@@H]1CCCN1C(=O)[C@@H]1Cc2ccc(O)cc2CN1` [Ex. 2, [S-(R*,R*)]-1-(1,2,3,4-tetrahydro-7-hydroxy-3-isoquinolinyl)carbonyl-2-Pyrrolidinecarbonitrile trifluoroacetate] returned a half-maximal inhibitory concentration (IC50) against DPP-IV of 4 nM.
Consider `COc1ccc2c(c1)CN[C@H](C(=O)N1CCC[C@H]1C#N)C2` [Ex. 3, [S-(R*,R*)]-1-(1,2,3,4-tetrahydro-7-methoxy-3-isoquinolinyl)carbonyl-2-Pyrrolidinecarbonitrile trifluoroacetate], for which the IC50 on DPP-IV was determined as 14 nM; against human plasma DPP-IV it was 4 nM; on rat plasma DPP-IV it was 16 nM.
For `N#C[C@@H]1CCCN1C(=O)[C@@H]1Cc2ccc(OCc3ccccc3)cc2CN1` [Ex. 4, [S-(R*,R*)]-1-(1,2,3,4-tetrahydro-7-phenylmethoxy-3-isoquinolinyl)carbonyl-2-Pyrrolidinecarbonitrile trifluoroacetate], in that order: 9 nM, 167 nM and 1300 nM.
In the case of `CCCOc1ccc2c(c1)CN[C@H](C(=O)N1CCC[C@H]1C#N)C2` [Ex. 5, [S-(R*,R*)]-1-(1,2,3,4-tetrahydro-7-propoxy-3-isoquinolinyl)carbonyl-2-Pyrrolidinecarbonitrile trifluoroacetate], the IC50 was found to be 8 nM at DPP-IV, 49 nM against human plasma DPP-IV and 315 nM on rat plasma DPP-IV.
Turning to `COc1cc2c(cc1OC)CC(C(=O)N1CCC[C@H]1C#N)NC2` (stereo partly drawn) [Ex. 6, [S-(R*,R*)]-1-[1,2,3,4-tetrahydro-6,7-dimethoxy-3-isoquinolinyl]carbonyl-2-Pyrrolidinecarbonitrile], the IC50 on DPP-IV is > 10000 nM.
Same read-out and setting: the figure for `CCN(CC)CCCOc1ccc2c(c1)CNC(C(=O)N1CCCC1C#N)C2` (stereo not drawn) [Ex. 8, [S-(R*,R*)]-1-[7-(3-diethylamino)propoxy-1,2,3,4-tetrahydro-3-isoquinolinyl]carbonyl-2-Pyrrolidinecarbonitrile] is 10 nM; for `CCOCCOCCOc1ccc2c(c1)CN[C@H](C(=O)N1CCC[C@H]1C#N)C2` [Ex. 9, [S-(R*,R*)]-1-[7-[2-(2-ethoxyethoxy)ethoxy]-1,2,3,4-tetrahydro-3-isoquinolinyl]carbonyl-2-Pyrrolidinecarbonitrile trifluoroacetate] it is 10 nM.
For the compound `N#C[C@@H]1CCCN1C(=O)[C@@H]1Cc2ccc(OCC(N)=O)cc2CN1` [Ex. 10, [S-(R*,R*)]-[3-(2-cyano-1-pyrrolidinyl)carbonyl-1,2,3,4-tetrahydro-7-isoquinolinyl]oxy-Acetamide], the IC50 was determined as 16 nM on DPP-IV, 5 nM on human plasma DPP-IV and 12 nM against rat plasma DPP-IV.
On DPP-IV, `N#C[C@@H]1CCCN1C(=O)[C@@H]1Cc2ccc(OCC(=O)O)cc2CN1` [Ex. 11, [S-(R*,R*)]-[3-(2-cyano-1-pyrrolidinyl)carbonyl-1,2,3,4-tetrahydro-7-isoquinolinyl]oxy-Acetic acid] gave an IC50 of 10 nM.

These data come from US6172081A, “Tetrahydroisoquinoline 3-carboxamide derivatives” (Novartis AG, priority 1999, dated 2001).
